The source made the active and inactive calls. No cut-off for these calls is given here.

This note sets out measurements from ChEMBL document CHEMBL5532648, “Development of a specific and potent IGF2BP1 inhibitor: A promising therapeutic agent for IGF2BP1-expressing cancers” (Eur J Med Chem, 2024).

The target in test [1] is T1, Insulin-like growth factor 2 mRNA-binding protein 1 (Homo sapiens, UniProt Q9NZI8). Description: Inhibition of human IGF2BP1 transfected in RKO cells incubated for 24 hrs by split-luciferase assay. The class given is cell-based.
The test system of test [2] is NCI-H1299. Description: Inhibition of wound healing in human NCI-H1299 cells by IncuCyte live-cell imaging analysis. The class given is functional, cell-based.
Test [3] deals with NCI-H1299. Description: Inhibition of wound healing in human NCI-H1299 cells at 1.25 to 5 uM by IncuCyte live-cell imaging analysis. The note with it: dose 1.25-5 µM. In kind it is functional, cell-based.
Test [4] has as its system LKR-M cell. Description: Inhibition of wound healing in mouse LKR-M cells transfected with IGF2BP1 at 5 uM by IncuCyte live-cell imaging analysis. The class given is functional, cell-based.
For test [5], the system named is LKR-M cell. Description: Inhibition of wound healing in mouse LKR-M cells transfected with GFP at 5 uM by IncuCyte live-cell imaging analysis. In kind it is functional, cell-based.
In test [6] the test system is LKR-M cell. Description: Antiproliferative activity against mouse LKR-M cells transfected with GFP-IGF2BP1 at 1.25 uM. In kind it is functional, cell-based.
The test system of test [7] is SW480. Description: Inhibition of cell migration in human SW480 cells at 2 uM. In kind it is functional, cell-based.
Test [8] has as its system NCI-H1299. Put plainly: Antiproliferative activity against human NCI-H1299 cells. The class given is functional, cell-based.
Test [9] concerns HCT-116. Put plainly: Antiproliferative activity against human HCT-116 cells. In kind it is functional, cell-based.
Test [10] deals with SW480. Description: Induction of apoptosis in human SW480 cells. The class given is functional, cell-based. The note with it: dose 2-4 µM.
The subject of test [11] is LKR-M cell. Put plainly: Antiproliferative activity against mouse LKR-M cells transfected with GFP. In kind it is functional, cell-based.
In test [12] the target is T1, Insulin-like growth factor 2 mRNA-binding protein 1. Description: Binding affinity to recombinant full-length human IGF2BP1 KH34 domain by MST assay.
The test system of test [13] is LKR-M cell. Put plainly: Antiproliferative activity against mouse LKR-M cells transfected with GFP-IGF2BP1. The class given is functional, cell-based.
The test system of the next test is RKO. Put plainly: Induction of apoptosis in human RKO cells. In kind it is functional, cell-based.
Test [14] relates to HCT-116. Description: Induction of apoptosis in human HCT-116 cells. In kind it is functional, cell-based. The note with it: dose 2-4 µM.
Test [15] concerns SW480. Put plainly: Inhibition of cell migration in IGF2BP1 knockout human SW480 cells at 2 uM. The class given is functional, cell-based.
Test [16] concerns NCI-H1299. Put plainly: Antiproliferative activity against human NCI-H1299 cells at 1.25 to 5 uM. The note with it: dose 1.25-5 µM. The class given is functional, cell-based.

T1 sequence (Q9NZI8 whole entry): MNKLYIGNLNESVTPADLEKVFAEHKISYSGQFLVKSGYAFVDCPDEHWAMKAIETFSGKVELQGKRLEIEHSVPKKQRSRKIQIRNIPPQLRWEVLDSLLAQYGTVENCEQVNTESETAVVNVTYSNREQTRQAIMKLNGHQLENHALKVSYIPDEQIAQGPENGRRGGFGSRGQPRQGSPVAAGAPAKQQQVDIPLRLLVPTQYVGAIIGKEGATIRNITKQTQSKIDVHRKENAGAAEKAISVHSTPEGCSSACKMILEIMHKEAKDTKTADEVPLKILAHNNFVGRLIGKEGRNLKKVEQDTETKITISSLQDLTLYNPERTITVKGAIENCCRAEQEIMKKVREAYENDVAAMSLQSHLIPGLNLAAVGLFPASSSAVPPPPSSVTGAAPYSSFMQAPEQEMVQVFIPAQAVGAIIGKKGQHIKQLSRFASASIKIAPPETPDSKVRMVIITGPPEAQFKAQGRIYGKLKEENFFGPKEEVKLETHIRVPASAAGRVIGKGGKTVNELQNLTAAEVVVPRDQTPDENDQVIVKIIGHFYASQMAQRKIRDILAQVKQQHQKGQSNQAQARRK

As to `Cc1ccc(N2CCN(C(=O)c3ccc(Cn4cnnn4)cc3)CC2)cc1`, the inhibition entry in test [1] was “inactive”.

`O=C(c1ccc(Cn2cnnn2)cc1)N1CCCC(Nc2ccc3c(c2)OCO3)C1` (centres undefined): the half-maximal inhibitory concentration (IC50) (in general, the concentration that gives 50% inhibition) in the test on NCI-H1299 [2] was 10 µM. For the same compound, the inhibition entry in test [1] is “Active”.

Consider `O=C(c1ccc(Cn2ccnc2)cc1)N1CCN(c2ccc3c(c2)OCO3)CC1`, for which the inhibition entry in test [1] is “inactive”.

In turn, `O=C(c1ccc(CN2CCCC2)cc1)N1CCN(c2ccc3c(c2)OCO3)CC1` gave a 50% inhibitory concentration (IC50) in the test with NCI-H1299 [2] greater than 100 µM. For the same compound, in test [1], the inhibition result was “Active”.

For the compound `O=C(c1ccc(CN2CCOCC2)cc1)N1CCCC(Nc2ccc3c(c2)OCO3)C1` (centres undefined), in test [1], the inhibition entry is “Active”.

Turning to `Cc1ccc(N2CCN(C(=O)c3ccc(C[Se]C#N)cc3)CC2)cc1`, in test [1], the inhibition result was “inactive”.

On to `N#C[Se]Cc1ccc(C(=O)N2CCCC(Nc3ccc4c(c3)OCO4)C2)cc1` (centres undefined), for which the IC50 in the test with NCI-H1299 [2] was 10 µM. The inhibition entry (in test [1]; with NCI-H1299 [3]) was “Active” throughout.

As to `Cc1ccc(N2CCN(C(=O)c3ccc(Cn4cncn4)cc3)CC2)cc1`, the inhibition entry in test [1] was “inactive”.

Consider `Cc1ccc(N2CCN(C(=O)c3ccc(CN4CCOCC4)cc3)CC2)cc1`, for which, in test [1], the inhibition result was “inactive”.

In the test with NCI-H1299 [2], `Cc1ccc(N2CCN(C(=O)c3ccc(Cn4cc(CO)c5ccccc54)cc3)CC2)cc1` showed an IC50 of 2.5 µM. Moreover, the inhibition entry (in test [1]; with NCI-H1299 [3]) was “Active” each time.

On to `O=C(c1ccc(CN2CCOCC2)cc1)N1CCN(c2ccc3c(c2)OCO3)CC1`, for which the concentration for half-maximal inhibition (IC50) with NCI-H1299 [2] was greater than 100 µM. In addition, the inhibition result in test [1] was “Active”.

Consider `O=C(c1ccc(Cn2cnc([N+](=O)[O-])n2)cc1)N1CCCC(Nc2ccc3c(c2)OCO3)C1` (centres undefined), for which the IC50 with NCI-H1299 [2] amounted to 20 µM. For the same compound, the inhibition result in test [1] is “Active”.

Take `Cc1ccc(N2CCN(C(=O)c3ccc(CNC(N)=S)cc3)CC2)cc1`: the inhibition entry in [1] is “inactive”.

For `O=C(c1ccc(Cn2cncn2)cc1)N1CCN(c2ccc3c(c2)OCO3)CC1`, in [1], the inhibition result is “inactive”.

As to `NC(=S)NCc1ccc(C(=O)N2CCCC(Nc3ccc4c(c3)OCO4)C2)cc1` (centres undefined), in the test on NCI-H1299 [2], the midpoint of inhibition, the IC50, lay at 30 µM. The inhibition entry in test [1] was “Active”.

For `Cc1ccc(N2CCN(C(=O)c3ccc(Cn4ccnc4)cc3)CC2)cc1`, the inhibition entry in [1] was “inactive”.

Turning to `O=C(c1ccc(CN2CCCC2)cc1)N1CCCC(Nc2ccc3c(c2)OCO3)C1` (centres undefined), the inhibition result in test [1] is “Active”.

Consider `O=C(c1ccc(Cn2cncn2)cc1)N1CCCC(Nc2ccc3c(c2)OCO3)C1` (centres undefined), for which the inhibition entry in test [1] is “Active”.

On to `O=C(c1ccc(Cn2cc(CO)c3ccccc32)cc1)N1CCN(c2ccc3c(c2)OCO3)CC1`, for which the inhibition result with LKR-M cell [4], with SW480 [7] and in the test with NCI-H1299 [3] was “Active” each time. Moreover, the inhibition entry with LKR-M cell [5] and in the test on SW480 [15] was “inactive” in each case. The outcome with LKR-M cell [6] and with NCI-H1299 [16] was Active. Besides, the Activity entry in the test with NCI-H1299 [8], in the test on HCT-116 [9], with SW480 [10], with LKR-M cell [13] and in the test with HCT-116 [14] was “Dose-Dependent Effect” in each case. The compound also showed an IC50 in the test with NCI-H1299 [2] of 0.7 µM. The result in the test on LKR-M cell [11] and in the test on RKO was inactive. Besides, the Kd (usually the constant that tells how readily two partners part at equilibrium) in test [12] was determined as 840 nM.

In the case of `O=C(c1ccc(Cn2ccnc2)cc1)N1CCCC(Nc2ccc3c(c2)OCO3)C1` (centres undefined), the inhibition entry in test [1] was “Active”.

`O=C(c1ccc(Cn2cnc([N+](=O)[O-])n2)cc1)N1CCN(c2ccc3c(c2)OCO3)CC1`: the inhibition result in test [1] was “inactive”.

Take `O=C(c1ccc(Cn2cnnn2)cc1)N1CCN(c2ccc3c(c2)OCO3)CC1`: the inhibition entry in [1] was “inactive”.

Take `NC(=S)NCc1ccc(C(=O)N2CCN(c3ccc4c(c3)OCO4)CC2)cc1`: inhibition in the test with NCI-H1299 [2] was half-maximal at 4.5 µM (IC50). The inhibition entry (in test [1]; in the test with NCI-H1299 [3]) was “Active” in each case.

In the case of `Cc1ccc(N2CCN(C(=O)c3ccc(CN4CCCC4)cc3)CC2)cc1`, the inhibition result in test [1] is “inactive”.

In the case of `N#C[Se]Cc1ccc(C(=O)N2CCN(c3ccc4c(c3)OCO4)CC2)cc1`, the inhibition result in [1] is “inactive”.

Compound `Cc1ccc(N2CCN(C(=O)c3ccc(Cn4cnc([N+](=O)[O-])n4)cc3)CC2)cc1` showed a 50% inhibitory concentration (IC50) in the test on NCI-H1299 [2] of 8 µM. Besides, the inhibition result (in [1]; in the test on NCI-H1299 [3]) was “Active” throughout.
